pIC50: −log10 of the molar value. The source made the active and inactive calls. No cut-off for these calls is given here. Square brackets hold non-standard residues; d marks the D form. Peptide text beside a SMILES is read from it.

This note sets out measurements from ChEMBL document CHEMBL3046666, “Design, synthesis, and biological evaluation of benzofuran derivatives as ET receptor antagonists” (Med Chem Res, 2013).

Assay [1] concerns the target T1, Endothelin-1 receptor (Rattus norvegicus) (UniProt P26684).
T1 sequence (whole entry): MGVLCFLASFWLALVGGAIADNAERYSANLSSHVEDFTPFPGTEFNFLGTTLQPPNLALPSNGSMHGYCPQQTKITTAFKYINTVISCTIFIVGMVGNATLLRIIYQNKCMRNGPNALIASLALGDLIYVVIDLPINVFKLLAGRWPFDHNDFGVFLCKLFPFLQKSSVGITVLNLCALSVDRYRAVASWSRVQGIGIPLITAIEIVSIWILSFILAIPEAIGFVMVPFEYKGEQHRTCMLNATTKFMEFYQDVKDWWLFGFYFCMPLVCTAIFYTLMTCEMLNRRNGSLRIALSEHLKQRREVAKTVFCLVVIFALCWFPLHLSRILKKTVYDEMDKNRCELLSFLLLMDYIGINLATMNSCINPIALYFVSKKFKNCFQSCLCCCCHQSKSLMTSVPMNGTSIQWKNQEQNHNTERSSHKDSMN
As to the kind of experiment: Antagonist activity at ETA receptor in Sprague-Dawley Rattus norvegicus (rat) thoracic aortic ring assessed as inhibition of ET1-induced thoracic aortic ring contraction at 10 uM after 30 min relative to control.

The species named for assay [2] is Rattus norvegicus. Put plainly: Selectivity Rattus norvegicus (rat)io of IC50 for ETB receptor in Sprague-Dawley Rattus norvegicus (rat) myocardium to IC50 for ETA receptor in Sprague-Dawley Rattus norvegicus (rat) myocardium. The format is tissue-based.
The target of assay [3] is T2, Endothelin receptor type B (Rattus norvegicus, UniProt P21451).
T2 sequence (P21451 whole entry): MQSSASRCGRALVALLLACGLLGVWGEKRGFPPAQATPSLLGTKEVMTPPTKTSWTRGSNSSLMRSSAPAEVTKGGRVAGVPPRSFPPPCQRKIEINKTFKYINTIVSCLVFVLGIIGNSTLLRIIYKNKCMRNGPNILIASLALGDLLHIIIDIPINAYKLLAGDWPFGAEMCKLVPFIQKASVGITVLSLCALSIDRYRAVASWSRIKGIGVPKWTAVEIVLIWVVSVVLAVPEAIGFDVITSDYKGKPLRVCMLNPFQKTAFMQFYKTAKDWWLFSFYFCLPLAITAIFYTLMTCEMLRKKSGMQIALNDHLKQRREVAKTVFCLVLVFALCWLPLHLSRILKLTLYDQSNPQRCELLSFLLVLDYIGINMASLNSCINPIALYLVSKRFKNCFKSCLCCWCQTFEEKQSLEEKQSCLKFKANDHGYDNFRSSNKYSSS
Put plainly: Displacement of [125I]ET-1 from ETB receptor in Sprague-Dawley Rattus norvegicus (rat) myocardium after 1 hr.

In assay [4] the target is T3, Endothelin-1 receptor (Rattus norvegicus, UniProt P26684).
T3 sequence (P26684 whole entry): T1 sequence (whole entry)
As to the kind of experiment: Displacement of [125I]ET-1 from ETA receptor in Sprague-Dawley Rattus norvegicus (rat) myocardium after 1 hr.

Assay [5] has as its target T4, Endothelin-1 receptor (Homo sapiens, UniProt P25101).
T4 sequence (P25101 whole entry): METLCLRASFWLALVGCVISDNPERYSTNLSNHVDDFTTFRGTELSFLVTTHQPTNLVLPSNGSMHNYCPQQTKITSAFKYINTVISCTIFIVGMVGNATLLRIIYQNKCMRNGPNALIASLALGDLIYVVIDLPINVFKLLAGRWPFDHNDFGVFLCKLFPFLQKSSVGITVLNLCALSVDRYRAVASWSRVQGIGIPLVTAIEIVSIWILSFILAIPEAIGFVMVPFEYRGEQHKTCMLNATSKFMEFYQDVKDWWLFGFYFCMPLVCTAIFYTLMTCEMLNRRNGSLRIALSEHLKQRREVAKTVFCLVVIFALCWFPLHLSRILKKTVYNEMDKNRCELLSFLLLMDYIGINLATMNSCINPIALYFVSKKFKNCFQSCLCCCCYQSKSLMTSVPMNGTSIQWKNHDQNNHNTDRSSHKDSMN
As to the kind of experiment: Antagonist activity at ETA receptor (unknown origin).

For assay [6], the target named is T4, Endothelin-1 receptor. Put plainly: Antagonist activity at Homo sapiens (human) ETA receptor.
Assay [7] relates to Rattus norvegicus. As to the kind of experiment: Antihypertensive activity in po dosed hypoxic pulmonary arterial Sprague-Dawley Rattus norvegicus (rat) model assessed as decrease in hypoxia-induced right ventricular systolic pressure administered for 28 days measured on day 29 by hemodynamic analyzer relative to untreated control. As to conditions: Heart right ventricle. Format: functional, organism-based.

The subject of assay [8] is Rattus norvegicus. As to the kind of experiment: Antihypertensive activity in po dosed hypoxic pulmonary arterial Sprague-Dawley Rattus norvegicus (rat) model assessed as decrease in hypoxia-induced central vein pressure administered for 28 days measured on day 29 by hemodynamic analyzer relative to untreated control. The format is functional, organism-based. The following applies: Artery.

The test system of assay [9] is Rattus norvegicus. Put plainly: Antihypertensive activity in hypoxic pulmonary arterial Sprague-Dawley Rattus norvegicus (rat) model assessed as decrease in hypoxia-induced right ventricular systolic pressure at 10 mg/kg, po administered for 28 days measured on day 29 by hemodynamic analyzer relative to untreated control. The format is functional, organism-based. Set-up: dose 10 mg/kg. As to conditions: Heart right ventricle.

For assay [10], the system named is Rattus norvegicus. Put plainly: Antihypertensive activity in hypoxic pulmonary arterial Sprague-Dawley Rattus norvegicus (rat) model assessed as decrease in hypoxia-induced central vein pressure at 10 mg/kg, po administered for 28 days measured on day 29 by hemodynamic analyzer relative to untreated control. As to conditions: Artery. On the set-up: dose 10 mg/kg. Format: functional, organism-based.

`CCCCOc1cccc2oc(C(=O)O)c(C)c12`: in assay [1], the inhibition came out at 56.7%.

As for `Cc1c(C(=O)O)oc2cccc(OC(CCC(=O)O)c3ccccc3)c12` (stereo not drawn), the inhibition in assay [1] stood at 44%.

For the compound `Cc1c(C(=O)O)oc2cccc(OCc3ccc4nonc4c3)c12`, in assay [2], the Ratio IC50 was found to be 27. Further, the pIC50 in [3] is 5.97; in assay [4], 7.41. Also, the inhibition in assay [1] stood at 70%.

For the compound `CCOc1cccc2oc(C(=O)O)c(C)c12`, the inhibition in [1] came out at 61%.

Take `Cc1ccc(OCCOc2cccc3oc(C(=O)O)c(C)c23)cc1`: in [1], the inhibition is 40.8%.

Turning to `CCCOc1cccc2oc(C(=O)O)c(C)c12`, the inhibition in [1] was 69.7%.

Consider `COc1cccc2oc(C(=O)O)c(C)c12`, for which the pIC50 in assay [5] is 4.96.

In the case of `CCCCCOc1cccc2oc(C(=O)O)c(C)c12`, the inhibition in assay [1] turned out to be 46.8%.

For the compound `CC(C)C[C@@H]1NC(=O)[C@@H](C(C)C)NC(=O)[C@@H]2CCCN2C(=O)[C@@H](CC(=O)O)NC(=O)[C@@H](Cc2c[nH]c3ccccc23)NC1=O` [BQ-123] (cyclo(L[dW][dD]P[dV])), the negative-log IC50 (pIC50) in [4] was 7.55; in [6] it was 7.43. The inhibition in assay [1] worked out at 68.1%.

Turning to `Cc1c(C(=O)O)oc2cccc(OCCOc3cccc(Cl)c3)c12`, in assay [1], the inhibition was determined as 21.7%.

`Cc1c(C(=O)O)oc2cccc(OC/C=C/c3ccccc3)c12`: the inhibition in [1] came to 50%.

As to `Cc1c(C(=O)O)oc2cccc(OCc3ccc4nsnc4c3)c12`, in [2], the Ratio IC50 came out at 40. Moreover, the pIC50 in [3] was 6.03; in assay [4] it was 7.64. Moreover, the inhibition in assay [1] is 82.2%.

As to `Cc1c(C(=O)O)oc2cccc(OCCN3CCCC3)c12`, the Activity result in assay [7] and in [8] was “Dose-dependent effect” each time. In addition, in assay [1], the inhibition stood at 34.1%.

On to `Cc1c(C(=O)O)oc2cccc(OC(C(=O)O)c3ccccc3)c12` (stereo not drawn), for which the inhibition in assay [1] was 29%.

As to `Cc1c(C(=O)O)oc2cccc(OCc3ccccc3)c12`, the pIC50 in [5] was 5.42. Also, in assay [1], the inhibition was 40.7%.

For the compound `COC(=O)C1=C(C)NC(C)=C(C(=O)OC)C1c1ccccc1[N+](=O)[O-]`, the outcome in [9] and in [10] was Active.
